Test [1] addresses T1, functional uptake of serotonin (5-HT) (Rattus norvegicus, UniProt P31652).
T1 construct: synaptosomes isolated in a 0.32M sucrose buffer from a male Wistar rat cortex; from tissue
The test can be described thus: Serotonin functional uptake assay in rat synaptosomes. The settings on record: for inhibition at 10 µM: tested initially at 10 μM in duplicate. It is filed as biochemical.
Method: (§1) The compounds of the invention were tested for their inhibition of functional uptake of serotonin (5-HT), norepinephrine (NE), or dopamine (DA), in synaptosomes prepared from rat whole brain, hypothalamus, or corpus striatum, respectively.
Serotonin Functional Uptake Assay
Characterization of serotonin uptake is performed using synaptosomes isolated in a 0.32M sucrose buffer from a male Wistar rat cortex. The uptake of radiolabelled serotonin by synaptosomes (100 μg of proteins/point) is allowed by incubating them in a deep well for 15 min at 37° C. in presence of test compounds and [^3H]5-hydroxytryptamine (0.1 μCi/point).
Synaptosomes and [^3H]5-hydroxytryptamine are prepared in a Krebs buffer pH 7.4 containing 25 mM NaHCO3, 11 mM glucose and 50 μM ascorbic acid. This incubation buffer is oxygenated during 5 minutes before incubation. Basal control is incubated for 15 minutes at 4° C. in order to avoid any uptake. Following this incubation the uptake is stopped by filtration through an “unifilter 96-wells GFB Packard plate” washed with Krebs buffer containing 25 mM NaHCO3 in order to eliminate the free [^3H]5-hydroxytryptamine. The radioactivity associated to the synaptosomes retained onto the unifilter corresponding to the uptake is then measured with a microplate scintillation counter Topcount, Packard using a scintillation liquid microscint 0, Packard.

In test [2] the target is functional uptake of norepinephrine (NE) (Rattus norvegicus, UniProt Q9WTR4). The test can be described thus: Norepinephrine functional uptake assay in rat hypothalamus synaptosomes. The settings on record: [3H]-norepinephrine, 20 minutes at 37° C. The format is biochemical.
Method: as §1
Norepinephrine Functional Uptake Assay
Characterization of norepinephrine uptake is performed using synaptosomes isolated at Cerep in a 0.32 M sucrose buffer from a male Wistar rat hypothalamus. The uptake of radiolabeled norepinephrine by synaptosomes (100 μg of proteins/point) is allowed by incubating them for 20 minutes at 37° C. in presence of test compounds and [^3H]-norepinephrine (0.1 μCi/point). The experiment is performed in a deep well.
Synaptosomes and [^3H]-norepinephrine are prepared in a Krebs buffer pH 7.4 containing 25 mM NaHCO3, 11 mM glucose and 50 μM ascorbic acid. This incubation buffer is oxygenated during 5 minutes before incubation. Basal control is incubated for 20 minutes at 4° C. in order to avoid any uptake. Following this incubation the uptake is stopped by filtration through an “unifilter 96-wells GFB “Packard plate washed with Krebs buffer containing 25 mM NaHCO3 in order to eliminate the free [^3H]-norepinephrine. The radioactivity associated to the synaptosomes retained onto the unifilter corresponding to the uptake is then measured with a microplate scintillation counter Topcount, Packard using a scintillation liquid microscint 0, Packard.
Test [3] has as its target T2, functional uptake of dopamine (DA) (Rattus norvegicus, UniProt P23977).
T2 construct: synaptosomes isolated at Cerep in a 0.32 M sucrose buffer from a male Wistar rat striatum; tissue Cerep; host or cells: male Wistar rat striatum synaptosomes
The test can be described thus: Dopamine functional uptake assay in rat striatum synaptosomes. It is filed as biochemical. The settings on record: for IC50: rat striatum synaptosomes, [3H]-dopamine, 15 minutes at 37° C.; for inhibition at 10 µM: tested initially at 10 μM in duplicate, read-out: inhibition of DA uptake (no IC50), Table 1.
Method: Dopamine Functional Uptake Assay
Characterization of dopamine uptake is performed using synaptosomes isolated at Cerep in a 0.32 M sucrose buffer from a male Wistar rat striatum. The uptake of radiolabelled dopamine by synaptosomes (20 μg of proteins/point) is allowed by incubating them for 15 minutes at 37° C. in presence of test compounds and [^3H]-dopamine (0.1 μCi/point). The experiment is performed in a deep well. Synaptosomes and [^3H]-dopamine are prepared in a Krebs buffer pH 7.4 containing 25 mM NaHCO3, 11 mM glucose and 50 μM ascorbic acid. This incubation buffer is oxygenated during 5 minutes before incubation. Basal control is incubated for 15 minutes at 4° C. in order to avoid any uptake. Following this incubation the uptake is stopped by filtration through an “unifilter 96-wells GFB Packard plate” washed with Krebs buffer containing 25 mM NaHCO3 in order to eliminate free [^3H]-dopamine. The radioactivity associated to the synaptosomes retained onto the unifilter corresponding to the uptake is then measured with a microplate scintillation counter Topcount, Packard using a scintillation liquid microscint 0, Packard.

A short description of test [4]: Behavioral Despair Test in Mice. It is filed as in vivo. Set-up: key to Dunnett, significance vs vehicle: * indicates a significant difference vs vehicle for P < 0.05 (Dunnett test).
For test [5] the following is noted: Hamelin et al. 1996; Serebruany et al. 2001; cited from earlier work.
Where [6] appears, read: 10 mg/kg, N = 10, E intraperitoneal.
Where [7] appears, read: 50 mg/kg intraperitoneal, N = 10.

Where “and” joins values, the source holds several entries; their conditions need not be identical. Equal entries are not always repeated. Where two headings read alike, the source gives them in different places.

T2 sequence (P23977 whole entry): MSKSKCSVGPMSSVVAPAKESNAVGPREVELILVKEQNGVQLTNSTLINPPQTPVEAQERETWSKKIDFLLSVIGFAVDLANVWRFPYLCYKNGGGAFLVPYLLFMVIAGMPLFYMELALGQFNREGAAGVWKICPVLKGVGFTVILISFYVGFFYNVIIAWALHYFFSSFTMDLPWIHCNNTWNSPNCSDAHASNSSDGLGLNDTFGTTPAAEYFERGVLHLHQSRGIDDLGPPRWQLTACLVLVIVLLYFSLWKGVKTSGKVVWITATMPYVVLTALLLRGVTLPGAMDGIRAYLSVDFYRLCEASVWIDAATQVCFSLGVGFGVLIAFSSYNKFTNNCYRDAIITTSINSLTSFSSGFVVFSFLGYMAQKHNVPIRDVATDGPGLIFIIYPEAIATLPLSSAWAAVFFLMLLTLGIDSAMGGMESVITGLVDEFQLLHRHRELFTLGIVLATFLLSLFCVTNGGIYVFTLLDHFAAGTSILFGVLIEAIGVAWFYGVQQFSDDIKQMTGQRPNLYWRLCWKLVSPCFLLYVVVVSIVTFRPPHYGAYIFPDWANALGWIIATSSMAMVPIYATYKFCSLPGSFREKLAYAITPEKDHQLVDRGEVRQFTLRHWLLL
T1 sequence (P31652 whole entry): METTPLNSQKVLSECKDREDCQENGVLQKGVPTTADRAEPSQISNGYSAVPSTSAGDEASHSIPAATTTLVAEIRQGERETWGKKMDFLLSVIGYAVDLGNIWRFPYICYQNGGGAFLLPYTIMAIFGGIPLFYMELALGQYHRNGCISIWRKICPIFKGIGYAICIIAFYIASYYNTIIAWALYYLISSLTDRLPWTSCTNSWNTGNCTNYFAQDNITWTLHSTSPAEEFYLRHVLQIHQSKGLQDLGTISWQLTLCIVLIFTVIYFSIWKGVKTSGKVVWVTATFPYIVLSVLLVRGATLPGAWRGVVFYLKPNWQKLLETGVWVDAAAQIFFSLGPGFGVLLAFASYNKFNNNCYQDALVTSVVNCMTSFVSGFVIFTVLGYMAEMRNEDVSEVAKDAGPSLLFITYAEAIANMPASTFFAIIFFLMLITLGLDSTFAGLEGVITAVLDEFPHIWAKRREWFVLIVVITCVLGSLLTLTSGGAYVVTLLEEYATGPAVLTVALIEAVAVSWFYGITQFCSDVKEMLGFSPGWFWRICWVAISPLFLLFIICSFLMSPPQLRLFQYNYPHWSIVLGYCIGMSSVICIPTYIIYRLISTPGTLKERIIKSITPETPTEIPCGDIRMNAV

Take `O=CN[C@@H]1CC[C@@H](c2ccc(Cl)c(Cl)c2)c2ccccc21` (racemic) [F, N-[4-(3,4-dichlorophenyl)-1,2,3,4-tetrahydronaphthalen-1-yl]formamide]: the inhibition at 10 µM in test [1] (read-out: inhibition of 5-HT uptake (no IC50), Table 3) is below 50%. Moreover, the IC50 in test [2] is 3900 nM; in test [3], 530 nM.
Consider `N[C@@H]1CC[C@@H](c2ccc(Cl)c(Cl)c2)c2ccccc21` (racemic) [P + Q, trans-4-(3,4-dichlorophenyl)-1,2,3,4-tetrahydro-1-naphthalenamine], for which the IC50 in test [2] was 8.8 nM; in test [3], 7.1 nM.
Take `O=CN[C@@H]1CC[C@@H](c2ccc(Cl)c(Cl)c2)c2ccccc21` [E, (R,S/S,R) N-[4-(3,4-dichlorophenyl)-1,2,3,4-tetrahydronaphthalen-1-yl]formamide]: the IC50 was 7500 nM in test [1] (rat synaptosomes, [3H]5-hydroxytryptamine, 15 min at 37° C.); 400 nM in test [2]; 510 nM in test [3]. Also, the “Dunnett, significance vs vehicle” value was “*” in test [4] (10 mg/kg, N = 10) and “*” in test [4] (50 mg/kg, N = 10). For the same compound, the “Immobility Duration (sec.), individual mice” value in test [4] (setting [6]) is 59 s and 162 s and 131 s and 22 s and 167 s and 58 s and 135 s and 122 s and 164 s and 50 s; in test [4] (setting [7]) it was 15 sec. (2×) and 0 sec. (3×) and 98 sec. and 34 sec. and 59 sec. and 25 sec. and 63 sec. For the same compound, the “Immobility Duration, Mean ± sem” value came to 107 s in test [4] (setting [6]) and 31 s in test [4] (setting [7]).
As to `Fc1ccc(C(OCCN2CCN(CCCc3ccccc3)CC2)c2ccc(F)cc2)cc1` [GBR 12909, reference compound], the inhibition at 10 µM in test [1] (read-out: inhibition of 5-HT uptake (no IC50), Table 1) was below 50%.
Regarding `N[C@@H]1CC[C@@H](c2ccc(Cl)c(Cl)c2)c2ccccc21` [P, (1R,4S)-trans 4-(3,4-dichlorophenyl)-1,2,3,4-tetrahydro-1-naphthalenamine], the IC50 in test [2] turned out to be 9.6 nM.
As for `N[C@H]1CC[C@H](c2ccc(Cl)c(Cl)c2)c2ccccc21` [Q, (1S,4R)-trans 4-(3,4-dichlorophenyl)-1,2,3,4-tetrahydro-1-naphthalenamine], in test [2], the 50% inhibitory concentration (IC50) is 35 nM.
`CC(NC(C)(C)C)C(=O)c1cccc(Cl)c1` (stereo not drawn) [bupropion, reference compound] displayed an IC50 in test [2] of 611 nM.
Regarding `CN(C)CCCN1c2ccccc2CCc2ccccc21` [imipramine, reference compound], in test [3], the inhibition at 10 µM was below 50%. For the same compound, the “Dunnett, significance vs vehicle” value in test [4] (10 mg/kg, N = 10) is “*”. Besides, in test [4] (setting [6]), the “Immobility Duration (sec.), individual mice” value is 28 sec. and 156 sec. and 98 sec. and 0 sec. (2×) and 63 sec. and 30 sec. and 56 sec. and 116 sec. and 64 sec; the “Immobility Duration, Mean ± sem” value turned out to be 61 s.
With `N[C@H]1CC[C@@H](c2ccc(Cl)c(Cl)c2)c2ccccc21` [norsertraline, (1S,4S)-cis 4-(3,4-dichlorophenyl)-1,2,3,4-tetrahydro-1-naphthalenamine], in test [5], the “neurological activity as stated in literature reports” value was “neurologically inactive”.
As to `CNCCCC1c2ccccc2C=Cc2ccccc21` [protriptyline, reference compound], the inhibition at 10 µM in test [3] was below 50%.

One may read the inhibition as the share of the control response that was lost under treatment. In general, IC50 refers to the concentration at which inhibition is half-maximal.

The values are drawn from patent US10702486B2, “Treatment of CNS disorders with trans 4-(3,4-dichlorophenyl)-1,2,3,4-tetrahydro-1-naphthalenamine” (SUNOVION PHARMACEUTICALS INC., priority 2002, dated 2020).
